The results in this text go back to patent publication US11065286B2 (priority 2016, dated 2021).

In one test the test system is MDA-MB-231 cells. The test is classed as cell-based.
Test [1] concerns Renca, MC38, and 4T1 cell lines. The test is classed as cell-based, mouse.

Consider `C/C=C/C/C=C/CCC(=O)[C@H]1O[C@H]1C(N)=O` [cerulenin], for which the vaccinia replication result with MDA-MB-231 cells is recorded as “significantly reduced vaccinia replication”.
As for Bafilomycin A1, in test [1], the “viral gene expression with HMGB1mut expression in presence of inhibitor” value is listed as “loss of the increased viral gene expression”.
